≈ marks a conversion by molar mass, not a printed value.
How the values were obtained:
Mtb [1] = experiment: microbe, parasite or virus in culture; format: cell-based, Mycobacterium tuberculosis; settings: Mycobacterium tuberculosis, read-out: MIC (II)
in vitro = settings: human
Mtb [2] = experiment: microbe, parasite or virus in culture; format: cell-based, Mycobacterium tuberculosis
Mtb [3] = experiment: microbe, parasite or virus in culture; format: cell-based, Mycobacterium tuberculosis; remark: listed apart in the source

| SMILES | LC50 (IV) (Vero cells) | MIC (Mtb [1]) [µg/mL] | CC50 (in vitro) [µg/mL] | MIC (III) (Mtb [2]) | MIC (I) (Mtb [3]) |
| --- | --- | --- | --- | --- | --- |
| CS(=O)(=O)N1CCN(C(=O)c2ccsc2NC(=O)c2nc3ccccc3s2)CC1 [Compound 229] | A (key: A: >50 μg/mL; B: 50-25 μg/mL; C: <25 μg/mL) |  |  |  |  |
| N#Cc1ccccc1NC(=O)c1nc2ccccc2s1 [Compound 215] | A (key: A: >50 μg/mL; B: 50-25 μg/mL; C: <25 μg/mL) |  |  |  |  |
| CCOc1n[nH]c(-c2ccsc2NC(=O)c2nc3ccccc3s2)n1 [Compound 211] | A (key: A: >50 μg/mL; B: 50-25 μg/mL; C: <25 μg/mL) |  |  |  |  |
| CCOC(=O)NC(=O)c1ccsc1NC(=O)c1ccnc(-n2cnnn2)c1 [Compound 12] |  | 1 to 3 (≈ 2.58 to 7.74 µM) | > 50 |  |  |
| CCOC(=O)NC(=O)c1ccsc1NC(=O)c1nc2cc(Cl)ccc2s1 [Compound 52] |  | < 1 | > 50 |  |  |
| COC(=O)CCCNC(=O)c1ccsc1NC(=O)c1nc2ccccc2s1 [Compound 237] | B (key: A: >50 μg/mL; B: 50-25 μg/mL; C: <25 μg/mL) |  |  |  |  |
| O=C(Nc1sccc1C(=O)NC(=O)N1CCOCC1)c1nc2ccccc2s1 [Compound 385] | C (key: A: >50 μg/mL; B: 50-25 μg/mL; C: <25 μg/mL) |  |  | C (key: A: <5 μg/mL; B: 5-25 μg/mL; C: >25 μg/mL) | C (key: A: <1 μg/mL; B: 1-3 μg/mL; C: >3 μg/mL) |
| CCOC(=O)NC(=O)c1ccsc1NC(=O)c1n[nH]c2cc(Cl)ccc12 [Compound 134] | A (key: A: >50 μg/mL; B: 50-25 μg/mL; C: <25 μg/mL) |  |  | C (key: A: <5 μg/mL; B: 5-25 μg/mL; C: >25 μg/mL) | C (key: A: <1 μg/mL; B: 1-3 μg/mL; C: >3 μg/mL) |
| CCOC(=O)NC(=O)c1ccsc1NC(=O)c1cc2ccccn2n1 [Compound 11] |  | 1 to 3 (≈ 2.79 to 8.37 µM) | > 50 |  |  |
| CCOC(=O)NC(=O)c1ccsc1NC(=O)c1n[nH]c2ncccc12 [Compound 358] | B (key: A: >50 μg/mL; B: 50-25 μg/mL; C: <25 μg/mL) |  |  | C (key: A: <5 μg/mL; B: 5-25 μg/mL; C: >25 μg/mL) | C (key: A: <1 μg/mL; B: 1-3 μg/mL; C: >3 μg/mL) |
| O=C(NC(=O)c1ccsc1NC(=O)c1nc2cnccc2s1)OC(c1ccccc1)C(F)(F)F (centres unmarked) [Compound 304] | B (key: A: >50 μg/mL; B: 50-25 μg/mL; C: <25 μg/mL) |  |  | C (key: A: <5 μg/mL; B: 5-25 μg/mL; C: >25 μg/mL) | B (key: A: <1 μg/mL; B: 1-3 μg/mL; C: >3 μg/mL) |
| O=C(Nc1sccc1C(=O)N1CCN(C2CC2)CC1)c1nc2ccccc2s1 [Compound 256] | C (key: A: >50 μg/mL; B: 50-25 μg/mL; C: <25 μg/mL) |  |  | B (key: A: <5 μg/mL; B: 5-25 μg/mL; C: >25 μg/mL) | C (key: A: <1 μg/mL; B: 1-3 μg/mL; C: >3 μg/mL) |
| CCOC(=O)NC(=O)c1ccsc1NC(=O)c1cnc2cc[nH]c2c1 [Compound 355] | B (key: A: >50 μg/mL; B: 50-25 μg/mL; C: <25 μg/mL) |  |  | C (key: A: <5 μg/mL; B: 5-25 μg/mL; C: >25 μg/mL) | C (key: A: <1 μg/mL; B: 1-3 μg/mL; C: >3 μg/mL) |
| CN1CCC(NC(=O)c2ccsc2NC(=O)c2nc3ccccc3s2)CC1 [Compound 255] | A (key: A: >50 μg/mL; B: 50-25 μg/mL; C: <25 μg/mL) |  |  | C (key: A: <5 μg/mL; B: 5-25 μg/mL; C: >25 μg/mL) | C (key: A: <1 μg/mL; B: 1-3 μg/mL; C: >3 μg/mL) |
| CC(C)OC(=O)NC(=O)c1ccsc1NC(=O)c1ccc2[nH]nnc2c1 [Compound 364] | B (key: A: >50 μg/mL; B: 50-25 μg/mL; C: <25 μg/mL) |  |  | C (key: A: <5 μg/mL; B: 5-25 μg/mL; C: >25 μg/mL) | B (key: A: <1 μg/mL; B: 1-3 μg/mL; C: >3 μg/mL) |
| CCOC(=O)NC(=O)c1ccsc1NC(=O)c1nc(=O)[nH]c2ccccc12 [Compound 141] | A (key: A: >50 μg/mL; B: 50-25 μg/mL; C: <25 μg/mL) |  |  | C (key: A: <5 μg/mL; B: 5-25 μg/mL; C: >25 μg/mL) | C (key: A: <1 μg/mL; B: 1-3 μg/mL; C: >3 μg/mL) |
| CCOC(=O)NC(=O)c1ccsc1NC(=O)c1ccnc(NC(=O)OC(C)C)c1 [Compound 4] |  | 1 to 3 (≈ 2.38 to 7.14 µM) | > 50 |  |  |
| CC(C)OC(=O)NC(=O)c1ccsc1NC(=O)c1ccc2[nH]ncc2c1 [Compound 351] | B (key: A: >50 μg/mL; B: 50-25 μg/mL; C: <25 μg/mL) |  |  | C (key: A: <5 μg/mL; B: 5-25 μg/mL; C: >25 μg/mL) | C (key: A: <1 μg/mL; B: 1-3 μg/mL; C: >3 μg/mL) |
| CCOC(=O)NC(=O)c1ccsc1NC(=O)c1n[nH]c2cc(C)ccc12 [Compound 120] | A (key: A: >50 μg/mL; B: 50-25 μg/mL; C: <25 μg/mL) |  |  | C (key: A: <5 μg/mL; B: 5-25 μg/mL; C: >25 μg/mL) | C (key: A: <1 μg/mL; B: 1-3 μg/mL; C: >3 μg/mL) |
| Cc1c(-c2ccccc2)sc(NC(=O)c2nc3ccccc3s2)c1C(=O)N1CCOCC1 [Compound 169] |  | > 3 |  |  |  |
| CC(=O)Nc1cc(C(=O)Nc2sccc2C(=O)N2CCCCC2)ccn1 [Compound 180] |  | > 3 |  |  |  |
| CCOC(=O)NC(=O)c1ccsc1NC(=O)c1ccnc(N)c1 [Compound 163] |  | > 3 |  |  |  |
| CCOC(=O)NC(=O)c1ccsc1NC(=O)c1ccccn1 [Compound 167] |  | > 3 |  |  |  |
| CC(C)OC(=O)NC(=O)c1ccsc1NC(=O)c1n[nH]c2ncccc12 [Compound 359] | B (key: A: >50 μg/mL; B: 50-25 μg/mL; C: <25 μg/mL) |  |  | C (key: A: <5 μg/mL; B: 5-25 μg/mL; C: >25 μg/mL) | C (key: A: <1 μg/mL; B: 1-3 μg/mL; C: >3 μg/mL) |
| CCOC(=O)NC(=O)c1ccsc1NC(=O)c1cnccn1 [Compound 166] |  | > 3 |  |  |  |
| CCOC(=O)NC(=O)c1ccsc1NC(=O)c1cccc(NC(C)=O)c1 [Compound 3] |  | 1 to 3 (≈ 2.66 to 7.99 µM) | > 50 |  |  |
| CCOC(=O)NC(=O)c1ccsc1NC(=O)c1ccc(Oc2ccc(F)cc2)cc1 [Compound 203] |  | > 3 |  |  |  |

Reference: patent US20160194299A1 (priority 2013, published 2016)
